According to patent US11812767B2, “Beverage having Reb D and Reb M” (SUNTORY HOLDINGS LIMITED, priority 2018, dated 2023):

How the values were obtained:
[1] = Degradation of Reb D and Reb M in phosphate buffer at 40° C. for 8 weeks, analysed by HPLC; format: physicochemical; conditions: for % Reb D degradation 2 weeks: 2 weeks at 40° C.; for % Reb D degradation 4 weeks: 4 weeks at 40° C.; for % Reb D degradation 6 weeks: 6 weeks at 40° C.; for % Reb D degradation 8 weeks: 8 weeks at 40° C.
Protocol: A study was carried out as follows, samples were prepared comprising 50 ppm, 150 ppm, 250 ppm and 400 ppm, of Reb D and samples with the following ratios of Reb D:Reb M 1:4, 1:1, 4:1 wherein the total concentration of the sample was 400 ppm. The samples were prepared in phosphate buffer and the pH was adjusted using phosphoric acid. Samples were prepared at the following pH; 2.0, 2.5, 3.0 and 3.5. These samples were incubated at 40° C. for 8 weeks. This incubation protocol should mimic the degradation at room temperature over 6 months. The amount of Reb D and Reb M in each sample at T=0 was calculated by HPLC this was then used to calculate the amount of remaining Reb M in each sample at each specified time point. Aliquots were taken at 2, 4, 6 and 8 weeks and analysed by HPLC to determine the degradation of Reb D and combinations of Reb D and Reb M over the 8 week study.

[2] = cited from earlier work
[3] = pH 2, Reb D 0.008 % w/w + Reb M 0.032 % w/w
[4] = pH 2, Reb D 0.02 % w/w + Reb M 0.02 % w/w
[5] = pH 2, Reb D 0.032 % w/w + Reb M 0.008 % w/w
[6] = pH 2.5, Reb D 0.005 % w/w alone
[7] = pH 2.5, Reb D 0.008 % w/w + Reb M 0.032 % w/w
[8] = pH 2.5, Reb D 0.015 % w/w alone
[9] = pH 2.5, Reb D 0.02 % w/w + Reb M 0.02 % w/w
[10] = pH 2.5, Reb D 0.025 % w/w alone
[11] = pH 2.5, Reb D 0.032 % w/w + Reb M 0.008 % w/w
[12] = pH 3, Reb D 0.008 % w/w + Reb M 0.032 % w/w
[13] = pH 3, Reb D 0.02 % w/w + Reb M 0.02 % w/w
[14] = pH 3, Reb D 0.032 % w/w + Reb M 0.008 % w/w
[15] = pH 3.5, Reb D 0.005 % w/w alone
[16] = pH 3.5, Reb D 0.008 % w/w + Reb M 0.032 % w/w
[17] = pH 3.5, Reb D 0.015 % w/w alone
[18] = pH 3.5, Reb D 0.02 % w/w + Reb M 0.02 % w/w
[19] = pH 3.5, Reb D 0.025 % w/w alone
[20] = pH 3.5, Reb D 0.032 % w/w + Reb M 0.008 % w/w

- degradation of low concentration sample of Reb D versus higher concentration samples ([1]; across pH 2.0 to 3.5): degraded more quickly
- additional degradation of 50 ppm Reb D sample versus 80 ppm Reb D sample in combination with 320 ppm Reb M ([1]; pH 2.0): approx. 10%
- % Reb D degradation 2 weeks ([1]; pH 2, Reb D 0.005 % w/w alone): 37%
- % Reb D degradation 4 weeks ([1]; pH 2, Reb D 0.005 % w/w alone): 73%
- % Reb D degradation 6 weeks ([1]; pH 2, Reb D 0.005 % w/w alone): 84%
- % Reb D degradation 8 weeks ([1]; pH 2, Reb D 0.005 % w/w alone): 91%
- % Reb D degradation 2 weeks [1, 3]: 36%
- % Reb D degradation 4 weeks [1, 3]: 62%
- % Reb D degradation 6 weeks [1, 3]: 76%
- % Reb D degradation 8 weeks [1, 3]: 85%
- % Reb D degradation 2 weeks ([1]; pH 2, Reb D 0.015 % w/w alone): 28%
- % Reb D degradation 4 weeks ([1]; pH 2, Reb D 0.015 % w/w alone): 70%
- % Reb D degradation 6 weeks ([1]; pH 2, Reb D 0.015 % w/w alone): 82%
- % Reb D degradation 8 weeks ([1]; pH 2, Reb D 0.015 % w/w alone): 90%
- % Reb D degradation 2 weeks [1, 4]: 28%
- % Reb D degradation 4 weeks [1, 4]: 59%
- % Reb D degradation 6 weeks [1, 4]: 72%
- % Reb D degradation 8 weeks [1, 4]: 82%
- % Reb D degradation 2 weeks ([1]; pH 2, Reb D 0.025 % w/w alone): 32%
- % Reb D degradation 4 weeks ([1]; pH 2, Reb D 0.025 % w/w alone): 68%
- % Reb D degradation 6 weeks ([1]; pH 2, Reb D 0.025 % w/w alone): 81%
- % Reb D degradation 8 weeks ([1]; pH 2, Reb D 0.025 % w/w alone): 89%
- % Reb D degradation 2 weeks [1, 5]: 37%
- % Reb D degradation 4 weeks [1, 5]: 63%
- % Reb D degradation 6 weeks [1, 5]: 78%
- % Reb D degradation 8 weeks [1, 5]: 86%
- % Reb D degradation 2 weeks ([1]; pH 2, Reb D 0.04 % w/w alone): 32%
- % Reb D degradation 4 weeks ([1]; pH 2, Reb D 0.04 % w/w alone): 66%
- % Reb D degradation 6 weeks ([1]; pH 2, Reb D 0.04 % w/w alone): 79%
- % Reb D degradation 8 weeks ([1]; pH 2, Reb D 0.04 % w/w alone): 86%
- degradation of Reb D samples which also contained Reb M versus Reb D samples alone (FIG. 4) ([1]; pH 2.0 and 2.5, averaged over samples): degraded less
- % Reb D degradation 2 weeks [1, 6]: 11%
- % Reb D degradation 4 weeks [1, 6]: 37%
- % Reb D degradation 6 weeks [1, 6]: 44%
- % Reb D degradation 8 weeks [1, 6]: 55%
- % Reb D degradation 2 weeks [1, 7]: 8%
- % Reb D degradation 4 weeks [1, 7]: 28%
- % Reb D degradation 6 weeks [1, 7]: 37%
- % Reb D degradation 8 weeks [1, 7]: 42%
- % Reb D degradation 2 weeks [1, 8]: 10%
- % Reb D degradation 4 weeks [1, 8]: 32%
- % Reb D degradation 6 weeks [1, 8]: 40%
- % Reb D degradation 8 weeks [1, 8]: 50%
- % Reb D degradation 2 weeks [1, 9]: 7%
- % Reb D degradation 4 weeks [1, 9]: 25%
- % Reb D degradation 6 weeks [1, 9]: 33%
- % Reb D degradation 8 weeks [1, 9]: 42%
- % Reb D degradation 2 weeks [1, 10]: 8%
- % Reb D degradation 4 weeks [1, 10]: 27%
- % Reb D degradation 6 weeks [1, 10]: 34%
- % Reb D degradation 8 weeks [1, 10]: 44%
- % Reb D degradation 2 weeks [1, 11]: 5%
- % Reb D degradation 4 weeks [1, 11]: 23%
- % Reb D degradation 6 weeks [1, 11]: 33%
- % Reb D degradation 8 weeks [1, 11]: 42%
- % Reb D degradation 2 weeks ([1]; pH 2.5, Reb D 0.04 % w/w alone): 7%
- % Reb D degradation 4 weeks ([1]; pH 2.5, Reb D 0.04 % w/w alone): 25%
- % Reb D degradation 6 weeks ([1]; pH 2.5, Reb D 0.04 % w/w alone): 34%
- % Reb D degradation 8 weeks ([1]; pH 2.5, Reb D 0.04 % w/w alone): 43%
- % Reb D degradation 2 weeks ([1]; pH 3, Reb D 0.005 % w/w alone): 0%
- % Reb D degradation 4 weeks ([1]; pH 3, Reb D 0.005 % w/w alone): 17%
- % Reb D degradation 6 weeks ([1]; pH 3, Reb D 0.005 % w/w alone): 22%
- % Reb D degradation 8 weeks ([1]; pH 3, Reb D 0.005 % w/w alone): 29%
- % Reb D degradation 2 weeks [1, 12]: 1%
- % Reb D degradation 4 weeks [1, 12]: 17%
- % Reb D degradation 6 weeks [1, 12]: 22%
- % Reb D degradation 8 weeks [1, 12]: 24%
- % Reb D degradation 2 weeks ([1]; pH 3, Reb D 0.015 % w/w alone): 0%
- % Reb D degradation 4 weeks ([1]; pH 3, Reb D 0.015 % w/w alone): 11%
- % Reb D degradation 6 weeks ([1]; pH 3, Reb D 0.015 % w/w alone): 16%
- % Reb D degradation 8 weeks ([1]; pH 3, Reb D 0.015 % w/w alone): 22%
- % Reb D degradation 2 weeks [1, 13]: 0%
- % Reb D degradation 4 weeks [1, 13]: 17%
- % Reb D degradation 6 weeks [1, 13]: 20%
- % Reb D degradation 8 weeks [1, 13]: 23%
- % Reb D degradation 2 weeks ([1]; pH 3, Reb D 0.025 % w/w alone): 1%
- % Reb D degradation 4 weeks ([1]; pH 3, Reb D 0.025 % w/w alone): 10%
- % Reb D degradation 6 weeks ([1]; pH 3, Reb D 0.025 % w/w alone): 13%
- % Reb D degradation 8 weeks ([1]; pH 3, Reb D 0.025 % w/w alone): 19%
- % Reb D degradation 2 weeks [1, 14]: 1%
- % Reb D degradation 4 weeks [1, 14]: 14%
- % Reb D degradation 6 weeks [1, 14]: 17%
- % Reb D degradation 8 weeks [1, 14]: 20%
- % Reb D degradation 2 weeks ([1]; pH 3, Reb D 0.04 % w/w alone): 0%
- % Reb D degradation 4 weeks ([1]; pH 3, Reb D 0.04 % w/w alone): 9%
- % Reb D degradation 6 weeks ([1]; pH 3, Reb D 0.04 % w/w alone): 11%
- % Reb D degradation 8 weeks ([1]; pH 3, Reb D 0.04 % w/w alone): 18%
- % Reb D degradation 8 weeks ([1]; pH 3.5, Reb D 0.005 % w/w (50 ppm) alone): 20%
- % Reb D degradation 2 weeks [1, 15]: 1%
- % Reb D degradation 4 weeks [1, 15]: 10%
- % Reb D degradation 6 weeks [1, 15]: 14%
- % Reb D degradation 2 weeks [1, 16]: 0%
- % Reb D degradation 4 weeks [1, 16]: 6%
- % Reb D degradation 6 weeks [1, 16]: 6%
- % Reb D degradation 8 weeks [1, 16]: 9%
- % Reb D degradation 2 weeks [1, 17]: 0%
- % Reb D degradation 4 weeks [1, 17]: 4%
- % Reb D degradation 6 weeks [1, 17]: 5%
- % Reb D degradation 8 weeks [1, 17]: 8%
- % Reb D degradation 2 weeks [1, 18]: 0%
- % Reb D degradation 4 weeks [1, 18]: 6%
- % Reb D degradation 6 weeks [1, 18]: 8%
- % Reb D degradation 8 weeks [1, 18]: 9%
- % Reb D degradation 2 weeks [1, 19]: 0%
- % Reb D degradation 4 weeks [1, 19]: 2%
- % Reb D degradation 6 weeks [1, 19]: 2%
- % Reb D degradation 8 weeks [1, 19]: 5%
- % Reb D degradation 2 weeks [1, 20]: 1%
- % Reb D degradation 4 weeks [1, 20]: 2%
- % Reb D degradation 6 weeks [1, 20]: 2%
- % Reb D degradation 8 weeks [1, 20]: 5%
- % Reb D degradation 8 weeks ([1]; pH 3.5, Reb D 0.04 % w/w (400 ppm) alone): 5%
- % Reb D degradation 2 weeks ([1]; pH 3.5, Reb D 0.04 % w/w alone): 1%
- % Reb D degradation 4 weeks ([1]; pH 3.5, Reb D 0.04 % w/w alone): 1%
- % Reb D degradation 6 weeks ([1]; pH 3.5, Reb D 0.04 % w/w alone): 1%
- stability of Reb D combined with Reb M in a ratio of about 1:1, compared to on its own ([1]; pH range 2.0 to 2.5): most stable
Structure (SMILES): C=C1C[C@@]23CC[C@H]4[C@@](C)(CCC[C@@]4(C)C(=O)O[C@@H]4O[C@H](CO)[C@@H](O)[C@H](O)[C@H]4O[C@@H]4O[C@H](CO)[C@@H](O)[C@H](O)[C@H]4O)[C@@H]2CC[C@]1(O[C@@H]1O[C@H](CO)[C@@H](O)[C@H](O[C@@H]2O[C@H](CO)[C@@H](O)[C@H](O)[C@H]2O)[C@H]1O[C@@H]1O[C@H](CO)[C@@H](O)[C@H](O)[C@H]1O)C3 [Reb D, rebaudioside D]
- Sweetness potency (relative to sucrose) [2]: 221
